Measured values published in patent US20200323212A1, “PEST CONTROL COMPOSITION AND USE OF SAME” (SUMITOMO CHEMICAL COMPANY, LIMITED, priority 2017, published 2020).

Tested on: ticks
Assay: Vial contact test, tick mortality after 48 hours (Test Examples 11, 14, 15)
Assay type: in vivo
Description: The Colby's calculation equation is shown as Equation 1 below.
E=X+Y−X×Y/100 (Equation 1)
Zero point two (0.2) mL of the solution was dropped to a 20 mL volume of vial, and the inner wall of the vial was coated homogeneously with the chemicals, and air-dried. Thereafter, ten ticks were released in the vial, and the vials were sealed with a lid. After 48 hours, the number of died ticks were examined, and the mortality (%) was calculated by the following equation 2. The three repetitions of each application dose were conducted.
Mortality (%)=(Number of dead pests/Number of supplied pests)×100 (Equation 2)
Zero point two (0.2) mL of the solution was dropped to a 20 mL volume of a vial, and the inner wall of the vial was coated homogeneously with the chemicals, and air-dried. Thereafter, ten ticks were released in the vial, and the vials were sealed with a lid. After 48 hours, the number of died ticks were examined, and the mortality (%) was calculated by the following equation 5. The three repetitions of each application dose were conducted.
Mortality (%)=(Number of dead pests/Number of supplied pests)×100 (Equation 5)
Zero point two (0.2) mL of the solution was dropped to a 20 mL volume of a vial, and the inner wall of the vial was coated homogeneously with the chemicals, and air-dried. Thereafter, ten ticks were released in the vial, and the vials were sealed with a lid. After 48 hours, the number of died ticks were examined, and the mortality (%) was calculated by the following equation 6. The three repetitions of each application dose were conducted.
Mortality (%)=(Number of dead pests/Number of supplied pests)×100 (Equation 6)

SMILES | Mortality (Measured value) (N,N-diethyl-m-toluamide alone 10 mg/m^2) [%] | Mortality (Measured value) (N,N-diethyl-m-toluamide alone 20 mg/m^2) [%] | Mortality (Measured value) (sec-butyl=2-(2-hydroxyethyl)piperidine-1-carboxylate alone 10 mg/m^2) [%]
CCN(CC)C(=O)c1cccc(C)c1 [N,N-diethyl-m-toluamide] | 40 | 50 | 
CCC(C)OC(=O)N1CCCCC1CCO (stereo not drawn) [sec-butyl=2-(2-hydroxyethyl)piperidine-1-carboxylate] |  |  | 70
